Assay results as given in patent publication EP0520823A2, “Non-substrate peptide inhibitors of farnesyl protein transferase” (MERCK & CO. INC., priority 1991, dated 1992).
Where a SMILES comes first, the peptide text is derived from it. [ ]: non-standard residue; d: D form.

Experiments:
[1] = tested on: partially pure bovine brain farnesyl-protein transferase; experiment: Tetrapeptides tested as farnesylation substrates ([3H]FPP, TLC, autoradiography); type: biochemical; conditions: peptide 200 µM, 0.5 µM [3H] FPP, 30 min. at 30°C
Experimental: When a peptide was used as the acceptor substrate, there were two changes to the assay: (1) Ras protein was excluded and, (2) the reactions were stopped by the additon of one tenth volume of 0.5 M EDTA. […] After drying under vacuum, the plates were sprayed with […] exposed to X-ray film at -70°C. […] These Rf values reflect TLC conditions using ethylacetate:pyridine: acetic acid:water (10:5:1:3) as the eluent. […] CAIS (Rf=0.84) and CAIM (Rf=0.83)). Quenched reaction mixtures containing peptide, farnesyldiphosphate and farnesyl-protein transferase were separated by TLC followed by visualization of the radioactive species by autoradiography. […] Control peptides having a […] substitution were not substrates. […] Autoradiographic exposure time was overnight (15-20 hr).

[2] = target: T1, Farnesyl-protein transferase from bovine brain (partially purified) (Bos taurus, UniProt P29702+P49355); experiment: Inhibition of Ras farnesylation by tetrapeptides; type: biochemical; conditions: Ras-CVLS at 3.5 µM, 0.25 µM [³H]FPP; average of 2-5 determinations
T1 construct: Cerebral lobes from bovine brains were homogenized in lysis buffer; from tissue; host or cells: bovine brain (cerebral lobes)
Experimental: The quenched reactions were allowed to stand for 15 minutes (to complete the precipitation process).
Fractions (20 mL) were collected and those containing farnesyl-protein transferase activity were pooled.
Single capital letter amino acid abbreviations are used above.

[3] = tested on: bovine brain farnesyl-protein transferase; conditions: earlier findings (Schaber et al.); cited from earlier work

Row | Molecule | IC50 [2] | Farnesylation substrate [1] | substrate for isoprenylation [3]
1 | CSCC[C@H](NC(=O)[C@@H](Cc1ccccc1)NC(=O)[C@@H](NC(=O)[C@@H](N)CS)C(C)C)C(=O)O [CV(dF)M, Cys-Val-D-Phe-Met] | – | - (- < 1% conversion) | –
2 | CC(C)C[C@@H](NC(=O)[C@@H](NC(=O)[C@@H](N)CS)C(C)C)C(=O)N[C@@H](CO)C(=O)O [CV(dL)S, Cys-Val-D-Leu-Ser] | 20 µM | - (- < 1% conversion) | –
3 | CC(C)C[C@H](NC(=O)[C@@H](NC(=O)[C@@H](N)CS)C(C)C)C(=O)N[C@H](CO)C(=O)O [CVL(dS)] | 11 µM | + (+ > 90% [^3H] farnesyl diphosphate converted to [^3H] farnesyl tetrapeptide) | –
4 | CC(C)C[C@H](NC(=O)[C@@H](NC(=O)[C@@H](N)CO)C(C)C)C(=O)N[C@@H](CO)C(=O)O [SVLS] (H-SVLS-OH) | – | - (- < 1% conversion) | –
5 | SSGCVLS [heptapeptide SSGCVLS] | – | – | served as a substrate for isoprenylation

Now from value to molecule, other results behind:

Row | IC50 [2] | Molecule | Farnesylation substrate [1] | substrate for isoprenylation [3]
6 | 60 µM | CC(=O)N[C@H](CS)C(=O)N[C@H](C(=O)N[C@@H](CC(C)C)C(=O)N[C@@H](CO)C(=O)O)C(C)C [N-Ac-(dC)VLS] (Ac-[dC]VLS-OH) | + (+ > 90% [^3H] farnesyl diphosphate converted to [^3H] farnesyl tetrapeptide) | –
7 | 2 µM | CC(=O)N[C@@H](CS)C(=O)N[C@H](C(=O)N[C@@H](CC(C)C)C(=O)N[C@@H](CO)C(=O)O)C(C)C [N-Ac-CVLS] (Ac-CVLS-OH) | + (+ > 90% [^3H] farnesyl diphosphate converted to [^3H] farnesyl tetrapeptide) | –
